Data taken from paper PMC7898037, “Improving mitochondria and ER stability helps eliminate upper motor neuron degeneration that occurs due to mSOD1 toxicity and TDP‐43 pathology” (Clinical and Translational Medicine, 2021).

Tested on: WT‐UeGFP mice
Experiment: Rotarod test, WT‐UeGFP mice
Format: in vivo
Set-up: Rotarod, Mean Diff. (vehicle minus NU-9) / Rotarod, mean difference G vehicle vs. G NU-9 (20) / Rotarod, mean difference G vehicle vs. G NU-9 (100): unit not given here
Conditions: for Rotarod, group mean (Mean 1 / Mean 2 of 2way ANOVA multiple comparisons): WT-UeGFP (G); for Rotarod, group mean (Mean 1 / Mean 2) / Rotarod, Mean Diff. (vehicle minus NU-9): WT-UeGFP mice; for Rotarod, Average / Rotarod, mean difference G vehicle vs. G NU-9 (20) / Rotarod, mean difference G vehicle vs. G NU-9 (100): WT-UeGFP; for Rotarod, mean difference G vehicle vs. G NU-9 (20): vehicle minus NU-9 20 mg/kg/day; for Rotarod, mean difference G vehicle vs. G NU-9 (100): vehicle minus NU-9 100 mg/kg/day
Procedure: hSOD1^G93A‐UeGFP, prpTDP‐43^A315T‐UeGFP and WT‐UeGFP mice were weighed and the required NU‐9 dose per weight was calculated (20 or 100 mg/kg), which was administered once daily by oral gavage, starting at postnatal day (P)60 and continuing until P120. Animals from the untreated group received the vehicle (NMP and olive oil) only. For oral administration purposes, 20 ga × 38 mm plastic feeding tubes were used (Instech Laboratories, Inc). The gavage tip was inserted into the mouth directly over the tongue and into the pharynx. While observing the swallowing reflex, the tip was safely and smoothly slid into the esophagus. Once the administration was completed, the gavage tip was pulled straight out.
Behavior data were collected from hSOD1^G93A‐UeGFP and WT‐UeGFP mice (starting at P60 and every 7 days until P116) and from prpTDP‐43^A315T‐UeGFP mice (at P60, P90, and P120) with the following number of mice for each group: WT‐UeGFP vehicle (n = 10), hSOD1^G93A‐UeGFP vehicle (n = 6), WT‐UeGFP 20 mg/kg/day NU‐9 (n = 5), hSOD1^G93A‐UeGFP 20 mg/kg/day NU‐9 (n = 7), WT‐UeGFP 100 mg/kg/day NU‐9 (n = 11), hSOD1^G93A‐UeGFP 100 mg/kg/day NU‐9 (n = 9), prpTDP‐43^A315T‐UeGFP untreated (n ≥ 3), and prpTDP‐43^A315T‐UeGFP 100 mg/kg/day NU‐9 (n = 4) (Table S3).
Mice were placed on a rotating rod that accelerates linearly from 4 to 40 rpm (Rotarod, Ugo Basile), and the average time spent on the rotating rod for three consecutive trials was calculated for each mouse. Mice were allowed to run for a maximum of 5 min with a 5 min rest period between each run, and the latency to fall was recorded for three consecutive trials. The average of the three trials was taken as the data point for each mouse at the age tested, and the performance of different groups are reported as the mean ± SEM.

Structure (SMILES): C[C@H](Oc1cc(C(F)(F)F)cc(C(F)(F)F)c1)C1CC(=O)CC(=O)C1 [NU‐9]
- Rotarod, group mean (Mean 1 / Mean 2 of 2way ANOVA multiple comparisons) (NU-9 20 mg/kg/day, P102): 295.1
- Rotarod, group mean (Mean 1 / Mean 2 of 2way ANOVA multiple comparisons) (NU-9 20 mg/kg/day, P109): 291
- Rotarod, group mean (Mean 1 / Mean 2 of 2way ANOVA multiple comparisons) (NU-9 20 mg/kg/day, P116): 298.9
- Rotarod, group mean (Mean 1 / Mean 2 of 2way ANOVA multiple comparisons) (NU-9 100 mg/kg/day, P102): 251.4
- Rotarod, group mean (Mean 1 / Mean 2 of 2way ANOVA multiple comparisons) (NU-9 100 mg/kg/day, P109): 241.3
- Rotarod, group mean (Mean 1 / Mean 2 of 2way ANOVA multiple comparisons) (NU-9 100 mg/kg/day, P116): 221.3
- Rotarod, group mean (Mean 1 / Mean 2) (NU-9 20 mg/kg/day, P60): 260.7
- Rotarod, group mean (Mean 1 / Mean 2) (NU-9 20 mg/kg/day, P67): 279.2
- Rotarod, group mean (Mean 1 / Mean 2) (NU-9 20 mg/kg/day, P74): 295.3
- Rotarod, group mean (Mean 1 / Mean 2) (NU-9 20 mg/kg/day, P81): 286.1
- Rotarod, group mean (Mean 1 / Mean 2) (NU-9 20 mg/kg/day, P88): 285.5
- Rotarod, group mean (Mean 1 / Mean 2) (NU-9 20 mg/kg/day, P95): 279.3
- Rotarod, group mean (Mean 1 / Mean 2) (NU-9 100 mg/kg/day, P60): 250.1
- Rotarod, group mean (Mean 1 / Mean 2) (NU-9 100 mg/kg/day, P67): 261.4
- Rotarod, group mean (Mean 1 / Mean 2) (NU-9 100 mg/kg/day, P74): 261.2
- Rotarod, group mean (Mean 1 / Mean 2) (NU-9 100 mg/kg/day, P81): 258.5
- Rotarod, group mean (Mean 1 / Mean 2) (NU-9 100 mg/kg/day, P88): 256.5
- Rotarod, group mean (Mean 1 / Mean 2) (NU-9 100 mg/kg/day, P95): 262.2
- Rotarod, Mean Diff. (vehicle minus NU-9) (vehicle vs. NU-9 20 mg/kg/day, P60): 10.27
- Rotarod, Mean Diff. (vehicle minus NU-9) (vehicle vs. NU-9 20 mg/kg/day, P67): -0.9667
- Rotarod, Mean Diff. (vehicle minus NU-9) (vehicle vs. NU-9 20 mg/kg/day, P74): -13.73
- Rotarod, Mean Diff. (vehicle minus NU-9) (vehicle vs. NU-9 20 mg/kg/day, P81): -2.267
- Rotarod, Mean Diff. (vehicle minus NU-9) (vehicle vs. NU-9 20 mg/kg/day, P88): -1.533
- Rotarod, Mean Diff. (vehicle minus NU-9) (vehicle vs. NU-9 20 mg/kg/day, P95): 5.033
- Rotarod, Mean Diff. (vehicle minus NU-9) (vehicle vs. NU-9 20 mg/kg/day, P102): -24.77
- Rotarod, Mean Diff. (vehicle minus NU-9) (vehicle vs. NU-9 20 mg/kg/day, P109): -17.03
- Rotarod, Mean Diff. (vehicle minus NU-9) (vehicle vs. NU-9 20 mg/kg/day, P116): -40.09
- Rotarod, Mean Diff. (vehicle minus NU-9) (vehicle vs. NU-9 100 mg/kg/day, P60): 20.91
- Rotarod, Mean Diff. (vehicle minus NU-9) (vehicle vs. NU-9 100 mg/kg/day, P67): 16.81
- Rotarod, Mean Diff. (vehicle minus NU-9) (vehicle vs. NU-9 100 mg/kg/day, P74): 20.39
- Rotarod, Mean Diff. (vehicle minus NU-9) (vehicle vs. NU-9 100 mg/kg/day, P81): 25.41
- Rotarod, Mean Diff. (vehicle minus NU-9) (vehicle vs. NU-9 100 mg/kg/day, P88): 27.48
- Rotarod, Mean Diff. (vehicle minus NU-9) (vehicle vs. NU-9 100 mg/kg/day, P95): 22.09
- Rotarod, Mean Diff. (vehicle minus NU-9) (vehicle vs. NU-9 100 mg/kg/day, P102): 18.94
- Rotarod, Mean Diff. (vehicle minus NU-9) (vehicle vs. NU-9 100 mg/kg/day, P109): 32.69
- Rotarod, Mean Diff. (vehicle minus NU-9) (vehicle vs. NU-9 100 mg/kg/day, P116): 37.47
- Rotarod, Average (NU-9 20 mg/kg/day po, P60): 260.733 s
- Rotarod, Average (NU-9 20 mg/kg/day po, P67): 279.2 s
- Rotarod, Average (NU-9 20 mg/kg/day po, P74): 295.333 s
- Rotarod, Average (NU-9 20 mg/kg/day po, P81): 286.133 s
- Rotarod, Average (NU-9 20 mg/kg/day po, P88): 285.467 s
- Rotarod, Average (NU-9 20 mg/kg/day po, P95): 279.267 s
- Rotarod, Average (NU-9 20 mg/kg/day po, P102): 295.133 s
- Rotarod, Average (NU-9 20 mg/kg/day po, P109): 291 s
- Rotarod, Average (NU-9 20 mg/kg/day po, P116): 298.867 s
- Rotarod, Average (NU-9 100 mg/kg/day po, P60): 250.091 s
- Rotarod, Average (NU-9 100 mg/kg/day po, P67): 261.424 s
- Rotarod, Average (NU-9 100 mg/kg/day po, P74): 261.212 s
- Rotarod, Average (NU-9 100 mg/kg/day po, P81): 258.455 s
- Rotarod, Average (NU-9 100 mg/kg/day po, P88): 256.455 s
- Rotarod, Average (NU-9 100 mg/kg/day po, P95): 262.212 s
- Rotarod, Average (NU-9 100 mg/kg/day po, P102): 251.424 s
- Rotarod, Average (NU-9 100 mg/kg/day po, P109): 241.273 s
- Rotarod, Average (NU-9 100 mg/kg/day po, P116): 221.303 s
- Rotarod, mean difference G vehicle vs. G NU-9 (20) (P102): -24.77
- Rotarod, mean difference G vehicle vs. G NU-9 (20) (P109): -17.03
- Rotarod, mean difference G vehicle vs. G NU-9 (20) (P116): -40.09
- Rotarod, mean difference G vehicle vs. G NU-9 (100) (P102): 18.94
- Rotarod, mean difference G vehicle vs. G NU-9 (100) (P109): 32.69
- Rotarod, mean difference G vehicle vs. G NU-9 (100) (P116): 37.47
